Data: ChEMBL document CHEMBL1136804, “Adenosine kinase inhibitors. 3. Synthesis, SAR, and antiinflammatory activity of a series of l-lyxofuranosyl nucleosides” (J Med Chem, 2003)
pIC50: −log10 of the molar value.

How the values were obtained:
[1] = target: Adenosine kinase (Homo sapiens, UniProt P55263); test: Inhibitory activity against human recombinant adenosine kinase
[2] = system: Rattus norvegicus; test: Anti-inflammatory activity at a dose of 10 mg/kg, perorally in rat Carrageenan paw edema model; type: functional; details: route oral

Chain of Adenosine kinase (P55263 whole entry): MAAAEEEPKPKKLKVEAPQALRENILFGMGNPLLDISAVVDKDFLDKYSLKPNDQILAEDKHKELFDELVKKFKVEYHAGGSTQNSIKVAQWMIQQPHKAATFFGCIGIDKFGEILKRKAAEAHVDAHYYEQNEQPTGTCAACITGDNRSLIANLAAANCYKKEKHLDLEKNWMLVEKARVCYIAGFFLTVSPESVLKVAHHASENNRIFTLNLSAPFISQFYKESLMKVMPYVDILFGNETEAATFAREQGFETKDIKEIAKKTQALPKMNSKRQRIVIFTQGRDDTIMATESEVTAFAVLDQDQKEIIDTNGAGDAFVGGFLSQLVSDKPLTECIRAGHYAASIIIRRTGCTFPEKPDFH

Compound `NC[C@H]1O[C@@H](n2nc(Br)c3c(N)ncnc32)[C@H](O)[C@@H]1O` (single isomer, unassigned) has a pIC50 [1] of 8.40.
Work on `NC[C@@H]1O[C@@H](n2cc(I)c3c(N)ncnc32)[C@H](O)[C@@H]1O` (single isomer, unassigned) yielded a pIC50 [1] of 7.80.
With `Nc1ncnc2c1ncn2[C@@H]1O[C@@H](CO)[C@@H](O)[C@H]1O` (single isomer, unassigned) the pIC50 [1] was 6.00.
With `Nc1ncnc2c1c(I)cn2[C@@H]1O[C@@H](CO)[C@@H](O)[C@H]1O` (single isomer, unassigned) the inhibition in vivo at 10 mg/kg [2] was 43.8%.
`C[C@H]1O[C@@H](n2cc(-c3ccccc3)c3c(Nc4ccc(F)cc4)ncnc32)[C@H](O)[C@@H]1O` (single isomer, unassigned) showed a pIC50 [1] of 8.30.
`COC[C@@H]1O[C@@H](n2cc(-c3ccccc3)c3c(Nc4ccccc4)ncnc32)[C@H](O)[C@@H]1O` (single isomer, unassigned) showed a pIC50 [1] of 7.82 and an inhibition in vivo at 10 mg/kg [2] of 86%.
For `NC[C@@H]1O[C@@H](n2nc(Br)c3c(N)ncnc32)[C@H](O)[C@@H]1O` (single isomer, unassigned), the pIC50 [1] was 6.77.
With `Nc1ncnc2c1c(Br)cn2[C@@H]1O[C@@H](CO)[C@@H](O)[C@H]1O` (single isomer, unassigned) the pIC50 [1] was 6.55.
`NC[C@@H]1O[C@@H](n2cnc3c(N)ncnc32)[C@H](O)[C@@H]1O` (single isomer, unassigned) was tested, and the pIC50 [1] was 5.00.
`OC[C@@H]1O[C@@H](n2cc(-c3ccccc3)c3c(Nc4ccc(F)cc4)ncnc32)[C@H](O)[C@@H]1O` (single isomer, unassigned) was tested, and the pIC50 [1] was 8.82 and the inhibition in vivo at 10 mg/kg [2] was 53.5%.
Compound `NC[C@@H]1O[C@@H](n2nc(-c3ccccc3)c3c(Nc4ccccc4)ncnc32)[C@H](O)[C@@H]1O` (single isomer, unassigned) has a pIC50 [1] of 7.38.
Compound `OC[C@@H]1O[C@@H](n2nc(-c3ccccc3)c3c(Nc4ccccc4)ncnc32)[C@H](O)[C@@H]1O` (single isomer, unassigned) has a pIC50 [1] of 8.55 and an inhibition in vivo at 10 mg/kg [2] of 14.2%.
`COC[C@@H]1O[C@@H](n2cc(I)c3c(N)ncnc32)[C@H](O)[C@@H]1O` (single isomer, unassigned) showed a pIC50 [1] of 5.70.
Compound `Nc1ncnc2c1c(Br)nn2[C@@H]1O[C@@H](CO)[C@@H](O)[C@H]1O` (single isomer, unassigned) has a pIC50 [1] of 5.00.
